# Source: ChEMBL document CHEMBL1156855, “Identification of potent and selective VEGFR receptor tyrosine kinase inhibitors having new amide isostere headgroups” (Bioorg Med Chem Lett, 2010)
# Calls of active or inactive are those of the source. No cut-off for these calls is given here.
# Columns and labels:
# [1] = molecular target: Angiopoietin-1 receptor (Homo sapiens) (UniProt Q02763); assay: Inhibition of human Tie2
# HUVEC [2] = assay: Antiangiogenic activity in HUVEC assessed as inhibition of tubule branching; type: functional, cell-based; conditions: Homo sapiens
# [3] = molecular target: Vascular endothelial growth factor receptor 1 (Homo sapiens) (UniProt P17948); assay: Inhibition of human VEGFR1
# HUVEC [4] = assay: Inhibition of VEGF-induced HUVEC proliferation; type: functional, cell-based; conditions: Homo sapiens
# [5] = molecular target: Receptor-type tyrosine-protein kinase FLT3 (Homo sapiens) (UniProt P36888); assay: Inhibition of human Flt3
# HUVEC [6] = assay: Antiangiogenic activity in HUVEC assessed as inhibition of tubule length; type: functional, cell-based; conditions: Homo sapiens
# [7] = molecular target: Macrophage-stimulating protein receptor (Homo sapiens) (UniProt Q04912); assay: Inhibition of human RON
# [8] = molecular target: Vascular endothelial growth factor receptor 3 (Homo sapiens) (UniProt P35916); assay: Inhibition of human VEGFR3
# HUVEC [9] = assay: Antiangiogenic activity in HUVEC assessed as inhibition of VEGF-induced tubule branching at 100 nM; type: functional; conditions: Homo sapiens
# [10] = molecular target: Aurora kinase A (Homo sapiens) (UniProt O14965); assay: Inhibition of human Aurora A
# [11] = molecular target: T1, Hepatocyte growth factor receptor (Homo sapiens, UniProt P08581); assay: Inhibition of human c-MET
# [12] = molecular target: T1, Hepatocyte growth factor receptor; assay: Inhibition of recombinant GST-fused c-Met expressed in baculovirus infected high five cells by DELFIA
# [13] = molecular target: Vascular endothelial growth factor receptor 2 (Homo sapiens, UniProt P35968); assay: Inhibition of recombinant GST-fused VEGFR2 expressed in baculovirus infected Sf9 cells by DELFIA
# HUVEC [14] = assay: Antiangiogenic activity in HUVEC assessed as inhibition of VEGF-induced tubule growth at 100 nM; type: functional; conditions: Homo sapiens
# [15] = molecular target: T1, Hepatocyte growth factor receptor; assay: Inhibition of TPR-fused Met autophosphorylation expressed in HEK293T cells after 150 mins by ELISA; type: cell-based; conditions: hek-293t
# [16] = molecular target: Dual specificity mitogen-activated protein kinase kinase 1 (Homo sapiens) (UniProt Q02750); conditions: 0.1 uM
# Description: Inhibition of human MEK1 at 0.1 uM
# [17] = molecular target: RAC-alpha serine/threonine-protein kinase (Homo sapiens) (UniProt P31749); conditions: 0.1 uM
# Description: Inhibition of human PKBalpha at 0.1 uM
# [18] = molecular target: LIM domain kinase 1 (Homo sapiens) (UniProt P53667); conditions: 0.1 uM
# Description: Inhibition of human LIMK1 at 0.1 uM
# [19] = molecular target: Tyrosine-protein kinase JAK3 (Homo sapiens) (UniProt P52333); conditions: 0.1 uM
# Description: Inhibition of human JAK3 at 0.1 uM
# [20] = molecular target: 3-phosphoinositide-dependent protein kinase 1 (Homo sapiens) (UniProt O15530); conditions: 0.1 uM
# Description: Inhibition of human PDK1 at 0.1 uM
# [21] = molecular target: T1, Hepatocyte growth factor receptor; conditions: 0.1 uM
# Description: Inhibition of human c-MET at 0.1 uM
# [22] = molecular target: Vascular endothelial growth factor receptor 3 (Homo sapiens) (UniProt P35916); assay: Inhibition of human VEGFR3 at 0.1 uM
# [23] = molecular target: Tyrosine-protein kinase JAK2 (Homo sapiens) (UniProt O60674); conditions: 0.1 uM
# Description: Inhibition of human JAK2 at 0.1 uM
# [24] = molecular target: Serine/threonine-protein kinase pim-1 (Homo sapiens) (UniProt P11309); conditions: 0.1 uM
# Description: Inhibition of human Pim1 at 0.1 uM
# [25] = molecular target: Proto-oncogene tyrosine-protein kinase receptor Ret (Homo sapiens) (UniProt P07949); conditions: 0.1 uM
# Description: Inhibition of human Ret at 0.1 uM
# [26] = molecular target: Ephrin type-B receptor 4 (Homo sapiens) (UniProt P54760); conditions: 0.1 uM
# Description: Inhibition of human EphB4 at 0.1 uM
# [27] = molecular target: Angiopoietin-1 receptor (Homo sapiens) (UniProt Q02763); conditions: 0.1 uM
# Description: Inhibition of human Tie2 at 0.1 uM
# [28] = molecular target: Vascular endothelial growth factor receptor 1 (Homo sapiens) (UniProt P17948); assay: Inhibition of human VEGFR1 at 0.1 uM
# [29] = molecular target: Receptor-type tyrosine-protein kinase FLT3 (Homo sapiens) (UniProt P36888); conditions: 0.1 uM
# Description: Inhibition of human Flt3 at 0.1 uM
# [30] = molecular target: High affinity nerve growth factor receptor (Homo sapiens) (UniProt P04629); conditions: 0.1 uM
# Description: Inhibition of human TrkA at 0.1 uM
# [31] = molecular target: Macrophage-stimulating protein receptor (Homo sapiens) (UniProt Q04912); conditions: 0.1 uM
# Description: Inhibition of human RON at 0.1 uM
# [32] = molecular target: Glycogen synthase kinase-3 beta (Homo sapiens) (UniProt P49841); conditions: 0.1 uM
# Description: Inhibition of human GSK3-beta at 0.1 uM
# [33] = molecular target: Focal adhesion kinase 1 (Homo sapiens) (UniProt Q05397); conditions: 0.1 uM
# Description: Inhibition of human FAK at 0.1 uM
# [34] = molecular target: RAF proto-oncogene serine/threonine-protein kinase (Homo sapiens) (UniProt P04049); conditions: 0.1 uM
# Description: Inhibition of human c-Raf at 0.1 uM
# [35] = molecular target: Phosphatidylinositol 4,5-bisphosphate 3-kinase catalytic subunit beta isoform (Homo sapiens) (UniProt P42338); conditions: 0.1 uM
# Description: Inhibition of human PI3Kbeta at 0.1 uM
# [36] = molecular target: Cytoplasmic tyrosine-protein kinase BMX (Homo sapiens) (UniProt P51813); conditions: 0.1 uM
# Description: Inhibition of human Bmx at 0.1 uM
# [37] = molecular target: Inhibitor of nuclear factor kappa-B kinase subunit beta (Homo sapiens) (UniProt O14920); conditions: 0.1 uM
# Description: Inhibition of human IKK-beta at 0.1 uM
# [38] = molecular target: Serine/threonine-protein kinase Chk1 (Homo sapiens) (UniProt O14757); conditions: 0.1 uM
# Description: Inhibition of human CHK1 at 0.1 uM
# [39] = molecular target: ALK tyrosine kinase receptor (Homo sapiens) (UniProt Q9UM73); conditions: 0.1 uM
# Description: Inhibition of human ALK at 0.1 uM
# [40] = molecular target: Mast/stem cell growth factor receptor Kit (Homo sapiens) (UniProt P10721); conditions: 0.1 uM
# Description: Inhibition of human c-Kit at 0.1 uM
# [41] = molecular target: Serine/threonine-protein kinase haspin (Homo sapiens) (UniProt Q8TF76); conditions: 0.1 uM
# Description: Inhibition of human haspin at 0.1 uM
smiles,measurement,setting,value
O=C(CC(Nc1ccc(Oc2cc(NC(=O)N3CCCC3)ncn2)c(F)c1)C(F)(F)F)Nc1ccccc1 (configuration not stated),inhibition,[1],inactive
same,IC50,HUVEC [2],6 nM
same,inhibition,[3],Active
same,IC50,HUVEC [4],40 nM
same,inhibition,[5],inactive
same,IC50,HUVEC [6],10 nM
same,inhibition,[7],inactive
same,inhibition,[8],Active
same,inhibition at 0.1 µM,HUVEC [9],95%
same,inhibition,[10],inactive
same,inhibition,[11],inactive
same,IC50,[12],> 5000 nM
same,IC50,[13],40 nM
same,inhibition at 0.1 µM,HUVEC [14],97%
CN(C(=O)CC(=O)Nc1ccc(Oc2ccnc3cc(-c4cn(C)cn4)sc23)c(F)c1)c1ccccc1,IC50,[12],40 nM
Cn1cnc(-c2cc3nccc(Oc4ccc(NC(CC(=O)Nc5ccc(F)cc5)C(F)(F)F)cc4F)c3s2)c1 (configuration not stated),IC50,[15],370 nM
same,IC50,[12],90 nM
same,IC50,[13],20 nM
COc1cc2nccc(Oc3ccc(NC(CC(=O)Nc4ccccc4)C(F)(F)F)cc3F)c2cc1OC (configuration not stated),IC50,[12],910 nM
same,IC50,[13],30 nM
COc1cc2ncnc(Oc3ccc(NC(=O)CC(Nc4ccccc4)C(F)(F)F)cc3F)c2cc1OC (configuration not stated),IC50,[12],> 5000 nM
same,IC50,[13],860 nM
Cn1cnc(-c2cc3nccc(Oc4ccc(NC(CC(=O)Nc5ccccc5)C(F)(F)F)cc4F)c3s2)c1 (configuration not stated),IC50,[13],10 nM
O=C(CC(Nc1ccc(F)cc1)C(F)(F)F)Nc1ccc(Oc2cc(NC(=O)N3CCCC3)ncn2)c(F)c1 (configuration not stated),IC50,[12],> 5000 nM
same,IC50,[13],1200 nM
Cn1cnc(-c2cc3nccc(Oc4ccc(NC(=O)CC(=O)Nc5ccccc5)cc4F)c3s2)c1,IC50,[12],30 nM
same,IC50,[13],20 nM
Cn1cnc(-c2cc3nccc(Oc4ccc(NC(CC(=O)Nc5ccc(F)cc5)C(F)(F)F)cc4)c3s2)c1 (configuration not stated),IC50,[15],880 nM
same,IC50,[12],180 nM
same,IC50,[13],20 nM
Cn1cnc(-c2cc3nccc(Oc4ccc(NC(=O)CC(Nc5ccccc5)C(F)(F)F)cc4F)c3s2)c1 (configuration not stated),IC50,[13],210 nM
COc1cc2nccc(Oc3ccc(NC(=O)CC(Nc4ccccc4)C(F)(F)F)cc3F)c2cc1OC (configuration not stated),IC50,[12],680 nM
same,IC50,[13],360 nM
COc1ccccc1NC(=O)CC(Nc1ccc(Oc2ccnc3cc(-c4cn(C)cn4)sc23)c(F)c1)C(F)(F)F (configuration not stated),inhibition,[16],< 50%
same,inhibition,[17],< 50%
same,inhibition,[18],< 50%
same,inhibition,[19],< 50%
same,inhibition,[20],< 50%
same,inhibition,[21],50%
same,inhibition,[22],> 95%
same,IC50,[15],1800 nM
same,inhibition,[23],< 50%
same,inhibition,[24],< 50%
same,inhibition,[25],< 50%
same,inhibition,[26],< 50%
same,inhibition,[27],50%
same,inhibition,[28],> 95%
same,inhibition,[29],50%
same,inhibition,[30],50%
same,inhibition,[31],50%
same,inhibition,[32],< 50%
same,inhibition,[33],< 50%
same,inhibition,[34],< 50%
same,inhibition,[35],< 50%
same,IC50,[12],840 nM
same,IC50,[13],20 nM
same,inhibition,[36],< 50%
same,inhibition,[37],< 50%
same,inhibition,[38],< 50%
same,inhibition,[39],< 50%
same,inhibition,[40],< 50%
same,inhibition,[41],< 50%
